Where a SMILES comes first, the peptide text is derived from it.
Legend:
[1] = target: T1, yeast proteasome β2/β2' (Saccharomyces cerevisiae, UniProt P25043); assay: Proteasome assay, trypsin-like activity (fluorogenic substrate Bz-Phe-Val-Arg-AMC); format: biochemical; parameters: endogenous in cells; host or cells: Saccharomyces cerevisiae; conditions: Bz-Phe-Val-Arg-AMC 8 µM, inhibitor incubated 1 h at 37°C, Tris-buffer pH 7.5
Method: (§1) A solution of proteasome from Saccharomyces cerivisiae in Tris-buffer (pH 7.5; 450 µl; 6.67 nM for PGPH, 5.56 nM for trypsin-like and 1.11 nM for chymotrypsin-like activity) was incubated with the inhibitors at varying concentrations ([…]) for 1 h at 37°C. The fluorogenic substrates for PGPH (Z-Leu-Leu-Glu-βNA, 40 µM), trypsin-like (Bz-Phe-Val-Arg-AMC, 8 µM) and chymotrypsin-like assays (Suc-Leu-Leu-Val-Tyr-AMC, 8 µM) were dissolved in the same Tris-buffer with a minimum amount of DMSO and added to the enzyme solution at 37 °C to reach a final volume of 500 µl. Fluorescence excitation/emission wavelengths were 360 nm/460 nm for AMC and 335 nm/410 nm for βNA. The rates of hydrolysis were monitored by the fluorescence increase and the initial linear portions of curves (100-300 sec) were used to calculate the IC50 values.

[2] = target: T2, yeast proteasome β5/β5' (Saccharomyces cerevisiae, UniProt P30656); assay: Proteasome assay, chymotrypsin-like activity (fluorogenic substrate Suc-Leu-Leu-Val-Tyr-AMC); format: biochemical; parameters: endogenous in cells; host or cells: Saccharomyces cerevisiae; conditions: Suc-Leu-Leu-Val-Tyr-AMC 8 µM, inhibitor incubated 1 h at 37°C, Tris-buffer pH 7.5
Method: as §1

[3] = target: T3, yeast proteasome β1/β1' (Saccharomyces cerevisiae, UniProt P38624); assay: Proteasome assay, PGPH activity (fluorogenic substrate Z-Leu-Leu-Glu-βNA); format: biochemical; parameters: Three of the seven different β-type subunits are processed at the N-terminal nucleophile, the threonine-1 residue; endogenous in cells; host or cells: Saccharomyces cerevisiae; conditions: Z-Leu-Leu-Glu-βNA 40 µM, inhibitor incubated 1 h at 37°C, Tris-buffer pH 7.5
Method: as §1

[4] = target: T4, yeast 20S proteasome (Saccharomyces cerevisiae, UniProt P25043+P30656+P38624); assay: X-ray structure analysis of proteasome/inhibitor complexes (crystal soaking); parameters: species or system S. cerivisiae; conditions: crystals soaked with 5 mM inhibitor for 12h, no competing substrate
T4 construct: Three of the seven different β-type subunits are processed at the N-terminal nucleophile, the threonine-1 residue; from tissue; host or cells: Saccharomyces cerevisiae (natural 20S complex)
Method: Crystals of […] proteasomes from S. cerivisiae were grown in hanging drops at 24 °C as described previously (Groll et al., Nature 386, 463-471, 1997). The protein concentration used for crystallization was 40 mg/ml in 10 mM Tris-HCl (pH 7.5) and 1 mM EDTA. The drops contained 4 µl protein and 2 µl reservoir solution with 30 mM magnesium acetate, 100 mM morpholino-ethane-sulphonic acid (pH 6.5) and 11 % MPD. The inhibitors were soaked with a final concentration of 5 mM for 12h. Data were collected using synchrotron radiation with λ = 1.1 Å on the BW6-beamline at the DESY-Centre/Hamburg/Germany (Table 1). Crystals were soaked in a cryoprotecting buffer (30% MPD, 28 mM magnesium acetate, 100 mM morpholino-ethane-sulfonic acid (pH 6.9) and frozen in a stream of cold nitrogen gas at 90 K (Oxford Cryo Systems). X-ray intensities were evaluated by using the MOSFILM program package (version 5.3) and data reduction was performed with CCP4. The anisotropy of diffraction was corrected by an overall anisotropic temperature factor by comparing observed and calculated structure amplitudes using X-PLOR (Brunger, A. (1992) X-PLOR: A System for X-Ray Crystallography and NMR, version 3.1; Yale University Press, New Haven, CT). Electron density was averaged 10 times over the 2-fold non crystallographic symmetry axis using MAIN (Turk, D., Ph. D. Thesis, Technical University, Munich, 1992). […]

[5] = target: T1, yeast proteasome β2/β2'; assay: Proteasome assay, trypsin-like activity (fluorogenic substrate Bz-Phe-Val-Arg-AMC); format: biochemical, Saccharomyces cerivisiae; parameters: from tissue; host or cells: Saccharomyces cerevisiae (natural complex from yeast; I conclude this from 'proteasome from'); conditions: for IC50: trypsin-like activity, Bz-Phe-Val-Arg-AMC 8 µM, inhibitor incubated 1 h at 37°C, Tris-buffer pH 7.5; for increase in binding affinity: compared to the monovalent inhibitors 1, 2, 3 and 5, β2/β2'
Method: as §1

[6] = target: T2, yeast proteasome β5/β5'; assay: Proteasome assay, chymotrypsin-like activity (fluorogenic substrate Suc-Leu-Leu-Val-Tyr-AMC); format: biochemical, Saccharomyces cerivisiae; parameters: from tissue; host or cells: Saccharomyces cerevisiae (natural complex from yeast; I conclude this from 'proteasome from'); conditions: for IC50: chymotrypsin-like activity, Suc-Leu-Leu-Val-Tyr-AMC 8 µM, inhibitor incubated 1 h at 37°C, Tris-buffer pH 7.5; for increase in binding affinity: compared to the monovalent inhibitors 1, 2, 3 and 5, β5/β5'
Method: as §1

[7] = target: T3, yeast proteasome β1/β1'; assay: Proteasome assay, PGPH activity (fluorogenic substrate Z-Leu-Leu-Glu-βNA); format: biochemical, Saccharomyces cerivisiae; parameters: Three of the seven different β-type subunits are processed at the N-terminal nucleophile, the threonine-1 residue; from tissue; host or cells: Saccharomyces cerevisiae (natural complex from yeast; I conclude this from 'proteasome from'); conditions: Z-Leu-Leu-Glu-βNA 40 µM, inhibitor incubated 1 h at 37°C, Tris-buffer pH 7.5
Method: as §1

Molecule | IC50 [1] | IC50 [2] | IC50 [3] | active sites occupied by the inhibitory head group in the X-ray structure [4] | IC50 [5] | IC50 [6] | increase in binding affinity [6] | increased activity ([6]; homobivalent versus related monovalent inhibitors, chymotryptic activity β5/β5') | IC50 [7] | increase in binding affinity [5] | increased activity ([5]; homobivalent versus related monovalent inhibitors, tryptic activity β2/β2')
CC(=O)N[C@@H](CCCNC(=N)N)C(=O)N[C@H](C(=O)N[C@H](C=O)CCCNC(=N)N)C(C)C [compound 2, Ac-Arg-Val-Arg-H] (Ac-Arg-Val-Arg-aldehyde) | 6.4 µM | > 100 µM | > 100 µM | – | – | – | – | – | – | – | –
(PEG)19-25-[NH- CO- (CH2)2- CO-Leu-Leu-Nle-H]2 [compound 4] | – | – | – | occupies all six active sites | > 100 µM | 0.017 µM | about two orders of magnitude | 100 fold | > 100 µM | – | –
(PEG)19-25-[NH-CO-(CH2)2-CO-Arg- Val-Arg-H]2 [compound 6] | – | – | – | only in the two β2 and β2' active sites | 0.071 µM | > 100 µM | – | – | > 100 µM | about two orders of magnitude | 100 fold
(PEG)19-25-[NH-CO-(CH2)2-CO-Arg-Val-Arg-H][NH-CO-(CH2)2-CO-Leu-Leu-Nle-H] [compound 7] | – | – | – | – | 0.097 µM | 0.031 µM | about two orders of magnitude | – | > 100 µM | about two orders of magnitude | –
HOOC-(CH2)2-CO-NH-(PEG)19-25-NH-(CH2)2-CO-Leu-Leu-Nle-H [compound 3] | – | – | – | – | > 100 µM | 1.8 µM | – | – | > 100 µM | – | –
HOOC-(CH2)2-CO-NH-(PEG)19-25-NH-CO-(CH2)2-CO-Arg-Val-Arg-H [compound 5] | – | – | – | – | 8.2 µM | > 100 µM | – | – | > 100 µM | – | –

Reference: patent EP0995757A2, “Bivalent inhibitors of the proteasome” (Max-Planck-Gesellschaft zur Förderung der Wissenschaften …, priority 1998, dated 2000)
